Test results published in patent US11434258B2, “Compounds (immunorhelins)” (ISR IMMUNE SYSTEM REGULATION HOLDING AB (PUBL), priority 2017, dated 2022).
Non-standard residues stand in square brackets, D forms with d. Residues, ends and D or L forms follow the SMILES beside them. *: point of attachment. d2Nal = N[C@H](Cc1ccc2ccccc2c1)C(=O)O; pGlu = O=C1CC[C@@H](C(=O)O)N1; tBu = CC(C)(C)*

Key:
[1] = molecular target: T1, GnRHR (Homo sapiens, UniProt P30968); experiment: Calcium assay in CHO-K1 cells (Genscript), FLIPR; assay type: cell-based; settings: CHO-K1/GnRHR/Ga15 cells, relative to agonist control, read-out: GNRHR Stimulation at 1 μM
T1 construct: host or cells: CHO-K1 (CHO-K1/GnRHR/Ga15)
T1 sequence (P30968 1-328): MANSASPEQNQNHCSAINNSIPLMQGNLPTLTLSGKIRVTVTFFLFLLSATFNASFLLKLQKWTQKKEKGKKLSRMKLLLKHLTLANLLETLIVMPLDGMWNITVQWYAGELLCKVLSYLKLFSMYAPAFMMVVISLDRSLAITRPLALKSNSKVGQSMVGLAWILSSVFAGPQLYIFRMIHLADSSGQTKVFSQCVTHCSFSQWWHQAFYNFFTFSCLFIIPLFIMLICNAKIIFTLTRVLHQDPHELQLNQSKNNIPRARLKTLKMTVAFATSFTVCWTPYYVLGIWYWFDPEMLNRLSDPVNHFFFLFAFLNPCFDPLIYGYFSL
Method: Test article sample solutions were dissolved in HBSS buffer (with 20 mM HEPES buffer, pH 7.4) to form the 5× working solution. FLIPR® Calcium 4 assay kit from Molecular devices (R8141) was used as required. In brief, CHO-K1 cells expressing GnRHR (CHO-K1/GnRHR/Ga15, Genscript accession NM_000406) were respectively cultured in the 10-cm dishes and maintained at 37° C./5% CO2. CHO-K1 cells expressing GNRHR were respectively seeded in a 384-well black-wall, clear-bottom plate at a density of 15,000 cells per well in 20 μl of growth medium about 18 hours prior to the day of experiment and maintained at 37° C./5% CO2. Then, 20 μl of dye loading solution was added into the wells and the plates were subsequently placed into a 37° C. incubator for 60 minutes, followed by a 15 minutes' incubation at room temperature. At last, 10 μl of compounds or control agonist were added into respective wells of the assay plate during reading in FLIPR. The plate containing 5× compound and control agonist solution was placed in FLIPR. Solutions were added into the cell plate automatically at the 20 seconds and the fluorescence signal was monitored for an additional 100 seconds (21 sec to 120 sec.). Data were recorded by ScreenWorks (version 3.1) as FMD files with FLIPR and stored on the GenScript computer network for off-line analysis. Data acquisition and analyses was performed using ScreenWorks (version 3.1) program and exported to Excel. The average value of the first 20 seconds' reading was calculated as the baseline and the relative fluorescent units (ΔRFU) intensity values were calculated by subtracting the average value of baseline from the maximum fluorescent units (21 s to 120 s).
The % Stimulation was calculated with the following equation: % Stimulation=(ΔRFUCompound−ΔRFUBackground)/(ΔRFUAgonist control−ΔRFUBackground)×100
Dose response curves were fitted with four-parameter-logistic-equation by the software GraphPad Prism 6.
Equation: four parameter logistic equation. Y=Bottom+(Top-Bottom)/(1+10^((Log EC50−X)×Hillslope))
X is the logarithm of concentration. Y is the response.

[2] = Stability in aqueous media (PBS pH 7.4); assay type: physicochemical; design: unit not given here; settings: phosphate buffer solution (PBS); PBS pH 7.4, 37° C., samples at T=0, 4, 24, 96 h; read-out: Stability grading (t1/2)
Text: LC/MS data was collected for compound identity.

Structure (SMILES) | activation at 1 µM [1] [%] | half-life at 0.2 mg/ml [2]
CCNC(=O)[C@@H]1CCCN1C(=O)[C@H](CCCNC(=N)N)NC(=O)[C@H](CC(C)C)NC(=O)[C@@H](COC(C)(C)C)NC(=O)[C@H](Cc1ccc(O)cc1)NC(=O)[C@H](CO)NC(=O)[C@H](Cc1c[nH]c2ccccc12)NC(=O)[C@H](Cc1cnc[nH]1)NC(=O)[C@@H]1CCC(=O)N1 [Buserelin, reference compound] | 94 | 
CCNC(=O)[C@@H]1CCCN1C(=O)[C@H](CCCNC(=N)N)NC(=O)[C@H](Cc1c[nH]c2ccccc12)NC(=O)[C@@H](COC(C)(C)C)NC(=O)[C@H](Cc1ccc(O)cc1)NC(=O)[C@H](CO)NC(=O)[C@H](Cc1c[nH]c2ccccc12)NC(=O)[C@H](Cc1c[nH]cn1)NC(=O)[C@@H]1CCC(=O)N1 [Compound 8, pGlu-His-Trp-Ser-Tyr-D-Ser(tBu)-Trp-Arg-Pro-NHEt] ([pGlu]HWSY[dS](tBu)WRP-NHEt) | 86 | > 96
CCNC(=O)[C@@H]1CCCN1C(=O)[C@H](Cc1ccc(O)cc1)NC(=O)[C@H](Cc1c[nH]c2ccccc12)NC(=O)[C@@H](COC(C)(C)C)NC(=O)[C@H](Cc1ccc(O)cc1)NC(=O)[C@H](CO)NC(=O)[C@H](Cc1c[nH]c2ccccc12)NC(=O)[C@H](Cc1c[nH]cn1)NC(=O)[C@@H]1CCC(=O)N1 [Compound 12, pGlu-His-Trp-Ser-Tyr-D-Ser(tBu)-Trp-Tyr-Pro-NHEt] ([pGlu]HWSY[dS](tBu)WYP-NHEt) | 80 | > 96
CCNC(=O)[C@@H]1CCCN1C(=O)[C@H](Cc1ccc(O)cc1)NC(=O)[C@H](Cc1c[nH]c2ccccc12)NC(=O)[C@@H](COC(C)(C)C)NC(=O)[C@H](Cc1c[nH]cn1)NC(=O)[C@H](CO)NC(=O)[C@H](Cc1c[nH]c2ccccc12)NC(=O)[C@H](Cc1c[nH]cn1)NC(=O)[C@@H]1CCC(=O)N1 [Compound 13, pGlu-His-Trp-Ser-His-D-Ser(tBu)-Trp-Tyr-Pro-NHEt] ([pGlu]HWSH[dS](tBu)WYP-NHEt) | 87 | > 96
CC(C)C[C@H](NC(=O)[C@@H](Cc1c[nH]c2ccccc12)NC(=O)[C@H](Cc1ccc(O)cc1)NC(=O)[C@H](CO)NC(=O)[C@H](Cc1c[nH]c2ccccc12)NC(=O)[C@H](Cc1c[nH]cn1)NC(=O)[C@@H]1CCC(=O)N1)C(=O)N[C@@H](Cc1ccc(O)cc1)C(=O)N1CCC[C@H]1C(=O)NCC(N)=O [Compound 14, pGlu-His-Trp-Ser-Tyr-D-Trp-Leu-Tyr-Pro-Gly-amide] ([pGlu]HWSY[dW]LYPG-NH2) | 78 | > 96
CC(C)C[C@H](NC(=O)[C@@H](Cc1c[nH]c2ccccc12)NC(=O)[C@H](Cc1c[nH]cn1)NC(=O)[C@H](CO)NC(=O)[C@H](Cc1c[nH]c2ccccc12)NC(=O)[C@H](Cc1c[nH]cn1)NC(=O)[C@@H]1CCC(=O)N1)C(=O)N[C@@H](Cc1ccc(O)cc1)C(=O)N1CCC[C@H]1C(=O)NCC(N)=O [Compound 16, pGlu-His-Trp-Ser-His-D-Trp-Leu-Tyr-Pro-Gly-amide] ([pGlu]HWSH[dW]LYPG-NH2) | 76 | > 96
N=C(N)NCCC[C@H](NC(=O)[C@H](Cc1c[nH]c2ccccc12)NC(=O)[C@@H](Cc1c[nH]c2ccccc12)NC(=O)[C@H](Cc1c[nH]cn1)NC(=O)[C@H](CO)NC(=O)[C@H](Cc1c[nH]c2ccccc12)NC(=O)[C@H](Cc1c[nH]cn1)NC(=O)[C@@H]1CCC(=O)N1)C(=O)N1CCC[C@H]1C(=O)NCC(N)=O [Compound 20, pGlu-His-Trp-Ser-His-D-Trp-Trp-Arg-Pro-NHEt] | 75 | > 96
CC(C)C[C@H](NC(=O)[C@@H](Cc1ccc2ccccc2c1)NC(=O)[C@H](Cc1ccc(O)cc1)NC(=O)[C@H](CO)NC(=O)[C@H](Cc1c[nH]c2ccccc12)NC(=O)[C@H](Cc1c[nH]cn1)NC(=O)[C@@H]1CCC(=O)N1)C(=O)N[C@@H](Cc1ccc(O)cc1)C(=O)N1CCC[C@H]1C(=O)NCC(N)=O [Compound 25, pGlu-His-Trp-Ser-Tyr-D-Nal-Leu-Tyr-Pro-Gly-amide] ([pGlu]HWSY[d2Nal]LYPG-NH2) | 82 | < 96
CC(C)C[C@H](NC(=O)[C@@H](Cc1ccc2ccccc2c1)NC(=O)[C@H](Cc1c[nH]cn1)NC(=O)[C@H](CO)NC(=O)[C@H](Cc1c[nH]c2ccccc12)NC(=O)[C@H](Cc1c[nH]cn1)NC(=O)[C@@H]1CCC(=O)N1)C(=O)N[C@@H](Cc1ccc(O)cc1)C(=O)N1CCC[C@H]1C(=O)NCC(N)=O [Compound 28, pGlu-His-Trp-Ser-His-D-Nal-Leu-Tyr-Pro-Gly-amide] ([pGlu]HWSH[d2Nal]LYPG-NH2) | 95 | > 96
NC(=O)CNC(=O)[C@@H]1CCCN1C(=O)[C@H](Cc1ccc(O)cc1)NC(=O)[C@H](Cc1c[nH]c2ccccc12)NC(=O)[C@@H](Cc1ccc2ccccc2c1)NC(=O)[C@H](Cc1c[nH]cn1)NC(=O)[C@H](CO)NC(=O)[C@H](Cc1c[nH]c2ccccc12)NC(=O)[C@H](Cc1c[nH]cn1)NC(=O)[C@@H]1CCC(=O)N1 [Compound 33, pGlu-His-Trp-Ser-His-D-Nal-Trp-Tyr-Pro-Gly-amide] ([pGlu]HWSH[d2Nal]WYPG-NH2) | 67 | < 96
CCNC(=O)[C@@H]1CCCN1C(=O)[C@H](CCCNC(=N)N)NC(=O)[C@H](Cc1c[nH]c2ccccc12)NC(=O)[C@@H](CC(C)C)NC(=O)[C@H](Cc1ccc(O)cc1)NC(=O)[C@H](CO)NC(=O)[C@H](Cc1c[nH]c2ccccc12)NC(=O)[C@H](Cc1c[nH]cn1)NC(=O)[C@@H]1CCC(=O)N1 [Compound 44, pGlu-His-Trp-Ser-Tyr-D-Leu-Trp-Arg-Pro-NHEt] ([pGlu]HWSY[dL]WRP-NHEt) | 111 | > 96
CCNC(=O)[C@@H]1CCCN1C(=O)[C@H](Cc1ccc(O)cc1)NC(=O)[C@H](CC(C)C)NC(=O)[C@@H](CC(C)C)NC(=O)[C@H](Cc1ccc(O)cc1)NC(=O)[C@H](CO)NC(=O)[C@H](Cc1c[nH]c2ccccc12)NC(=O)[C@H](Cc1c[nH]cn1)NC(=O)[C@@H]1CCC(=O)N1 [Compound 45, pGlu-His-Trp-Ser-Tyr-D-Leu-Leu-Tyr-Pro-NHEt] ([pGlu]HWSY[dL]LYP-NHEt) | 105 | > 96
CCNC(=O)[C@@H]1CCCN1C(=O)[C@H](Cc1ccc(O)cc1)NC(=O)[C@H](CC(C)C)NC(=O)[C@@H](CC(C)C)NC(=O)[C@H](Cc1c[nH]cn1)NC(=O)[C@H](CO)NC(=O)[C@H](Cc1c[nH]c2ccccc12)NC(=O)[C@H](Cc1c[nH]cn1)NC(=O)[C@@H]1CCC(=O)N1 [Compound 48, pGlu-His-Trp-Ser-His-D-Leu-Leu-Tyr-Pro-NHEt] ([pGlu]HWSH[dL]LYP-NHEt) | 118 | > 96
CC(C)C[C@H](NC(=O)CNC(=O)[C@H](Cc1ccc(O)cc1)NC(=O)[C@H](CO)NC(=O)[C@H](Cc1c[nH]c2ccccc12)NC(=O)[C@H](Cc1cnc[nH]1)NC(=O)[C@@H]1CCC(=O)N1)C(=O)N[C@@H](CCCNC(=N)N)C(=O)N1CCC[C@H]1C(=O)NCC(N)=O [Gonadorelin, reference compound] | 102 | 
CC(C)C[C@H](NC(=O)[C@@H](COC(C)(C)C)NC(=O)[C@H](Cc1ccc(O)cc1)NC(=O)[C@H](CO)NC(=O)[C@H](Cc1c[nH]c2ccccc12)NC(=O)[C@H](Cc1cnc[nH]1)NC(=O)[C@@H]1CCC(=O)N1)C(=O)N[C@@H](CCCNC(=N)N)C(=O)N1CCC[C@H]1C(=O)NNC(N)=O [Goserelin] | 99 | 
CCNC(=O)[C@@H]1CCCN1C(=O)[C@H](CCCNC(=N)N)NC(=O)[C@H](CC(C)C)NC(=O)[C@@H](CC(C)C)NC(=O)[C@H](Cc1ccc(O)cc1)NC(=O)[C@H](CO)NC(=O)[C@H](Cc1c[nH]c2ccccc12)NC(=O)[C@H](Cc1c[nH]cn1)NC(=O)[C@@H]1CCC(=O)N1 [Leuprorelin, reference compound] | 107 | 
CC(C)C[C@H](NC(=O)[C@@H](Cc1ccc2ccccc2c1)NC(=O)[C@H](Cc1ccc(O)cc1)NC(=O)[C@H](CO)NC(=O)[C@H](Cc1c[nH]c2ccccc12)NC(=O)[C@H](Cc1c[nH]cn1)NC(=O)[C@@H]1CCC(=O)N1)C(=O)N[C@@H](CCCNC(=N)N)C(=O)N1CCC[C@H]1C(=O)NCC(N)=O [Nafarelin, reference compound] | 100 | 
